Measurements taken from patent US20220008425A1, “Pharmaceutical Composition for Treating B-Cell Lymphoma” (FUNDAN UNIVERSITY SHANGHAI CANER CENTER, priority 2018, published 2022).
“Also recorded” adds a separate entry of the source.

How the values were obtained:
[1] = system: CD20 and mCRPs (CD46, CD55, CD59) in RCHO-resistant NU-DUL-1 cells; experiment: FACS analysis of membrane expression of CD46, CD55, CD59 and CD20; type: cell-based, human
Experimental: (§1) After being washed with PBS, cells were incubated with fluorescein-conjugated antibody for 30 minutes, followed by washing and resuspension of cells in PBS. Flow cytometry analysis was performed on a cytomics FC500 MPL instrument (Beckman Coulter, Inc., Brea, Calif.) and FlowJo software (Ashland, Inc., OR) was used for analysis. Cells were then sorted according to their relative fluorescence intensity by using a MoFlo XDP sorter (Beckman Coulter Inc., Brea, Calif.).

[2] = system: CD20 and mCRPs (CD46, CD55, CD59) in RCHO-resistant LY8 cells; experiment: as above; type: cell-based, human
Experimental: as §1

NU-DUL-1-RCHO cells = conditions: 48 hours
Experimental: (§2) Further, we constructed LY8 and NU-DUL-1 cells resistant to chemotherapeutic drugs. Briefly, LY8-ORI and NU-DUL-1-ORI cells were treated with doxorubicin (Selleck Chemicals, Houston, Tex.) and vincristine (Selleck Chemicals, Houston, Tex.) at a clinical ratio of 50:1.4 by increasing the concentration. […] These cells were then treated with 2 μg/mL of 4-hydroperoxycyclophosphamide (4-HC) (Santa Cruz Biotechnology, Inc., Santa Cruz, Calif.) every 21 days for 3 cycles. The obtained CHO-resistant cells are referred to as LY8-CHO and NU-DUL-1-CHO, respectively. CHO-resistant cells were treated with doxorubicin, vincristine, and 4-HC every 22 days to maintain drug tolerance to CHO. […] To maintain RCHO resistance, LY8-RCHO cells and NU-DUL-1-RCHO cells were treated with 32 μg/mL of rituximab containing 20% (v/v) of NHS every 22 days, followed by treatment with doxorubicin, vincristine, and 4-HC. After 48 hours of treatment with doxorubicin, vincristine and 4-HC, drug resistance to CHO and RCHO was determined by a series of CCK-8 assays.
(§3) Cells were seeded in a 96-well plate at a density of 1×10^4/100 μL/well. Cells were pretreated with IPI-145, abemaciclib, AZD4547, PF-573228, R788, or saracatinib at increasing concentrations with or without CHO for 48 hours prior to performing CytoTox-Glo™ cytotoxicity assay. We performed cytotoxicity assay by using a CytoTox-Glo™ cytotoxicity assay kit (Promega Inc., Madison, Wis.) according to their instructions. Briefly, 50 μL of CytoTox-Glo™ cytotoxicity assay reagent was added to all wells, mixed by orbital shaking, and then incubated for 15 minutes at room temperature. Luminescence of experimental dead cells was detected with a Synergy HT microplate reader (BioTek, Biotek Winooski, Minn.), wherein 50 μL of lysate was added to all wells, mixed and incubated for 15 minutes at room temperature prior to detection of total luminescence. Cytotoxicity was calculated according to the following formula: Cytotoxicity (%)=Experimental dead cell luminescence/Total luminescence×100%.

LY8-RCHO cells = conditions: 48 hours
Experimental: as §2, §3

[3] = inhibitor alone at increasing concentrations
[4] = inhibitor at increasing concentrations with CHO

C[C@H](Nc1ncnc2[nH]cnc12)c1cc2cccc(Cl)c2c(=O)n1-c1ccccc1 [duvelisib]
membrane expression of CD20 [1]: significantly reduced | membrane expression of the other three mCRPs (CD46, CD55, CD59) [1]: the other three mCRPs did not | membrane expression of CD20 [2]: significantly reduced | membrane expression of the other three mCRPs (CD46, CD55, CD59) [2]: the other three mCRPs did not | cytotoxicity (induction of cell death), inhibitor used alone (NU-DUL-1-RCHO cells; [3]): only slightly somewhat cytotoxic; also recorded: negligible effect on direct induction of cell death | reversal of resistance to CHO (cytotoxicity of CHO), inhibitor co-treated with CHO (NU-DUL-1-RCHO cells; [4]): significantly enhanced the cytotoxicity of CHO in the two RCHO-resistant cell lines in a dose-dependent manner; also recorded: significantly reversed resistance of RCHO-resistant cells to CHO | cytotoxicity (induction of cell death), inhibitor used alone (LY8-RCHO cells; [3]): only slightly somewhat cytotoxic; also recorded: negligible effect on direct induction of cell death | reversal of resistance to CHO (cytotoxicity of CHO), inhibitor co-treated with CHO (LY8-RCHO cells; [4]): significantly enhanced the cytotoxicity of CHO in the two RCHO-resistant cell lines in a dose-dependent manner; also recorded: significantly reversed resistance of RCHO-resistant cells to CHO
